The subject of assay [1] is Bacillus subtilis. Nature of the assay: Antimicrobial activity against Bacillus subtilis ATCC 19659 at 150 ug/disk. Type of assay: functional, organism-based.
Assay [2] has as its system P388. Nature of the assay: Cytotoxicity against mouse P388 cells. Type of assay: functional, cell-based.
Assay [3] relates to Bacillus subtilis. Briefly: Antimicrobial activity against Bacillus subtilis ATCC 19659 at 30 ug/disk. In kind it is functional. The note with it: read-out: IZ.
The subject of assay [4] is P388. Nature of the assay: Cytotoxicity against mouse P388 cells at 0.06 ug/mL. In kind it is functional.

In brackets after ≈: the same amount, converted by molar mass. Activity calls are given as the source filed them. The rule behind the calls is not given here.

For the compound `COc1cc(O)c2c(c1)OC(c1ccc(O)c(Oc3ccc(C4CC(=O)c5c(O)cc(O)cc5O4)cc3)c1)CC2=O` (centres undefined), the outcome in the assay with Bacillus subtilis [1] was inactive. Regarding `O=C1CC(c2ccc(Oc3cc(C4CC(=O)c5c(O)cc(O)cc5O4)ccc3O)cc2)Oc2cc(O)cc(O)c21` (centres undefined), the outcome in the assay on Bacillus subtilis [1] was inactive. The compound further came in with an IC50 in the assay on P388 [2] of 8.2 mg/L (≈ 15.1 µM).

As for `O=C(N[C@H](CO)[C@H](O)c1ccc([N+](=O)[O-])cc1)C(Cl)Cl` [CHLORAMPHENICOL], the zone of inhibition at 30 µg/disc with Bacillus subtilis [3] is 12 mm. Take `COc1cc(O)c2c(c1)OC(c1ccc(Oc3cc(C4CC(=O)c5c(O)cc(OC)cc5O4)ccc3O)cc1)CC2=O` (centres undefined): the outcome with Bacillus subtilis [1] was inactive. The compound also registered an IC50 with P388 [2] of 8.7 mg/L (≈ 15.2 µM).

As for `CO[C@@]12[C@H](COC(N)=O)C3=C(C(=O)C(C)=C(N)C3=O)N1C[C@@H]1N[C@@H]12` [MITOMYCIN], the Activity with P388 [4] was 43%.

`O=C1CC(c2ccc(Oc3cc(-c4cc(=O)c5c(O)cc(O)cc5o4)ccc3O)cc2)Oc2cc(O)cc(O)c21` (centres undefined): the result in the assay with Bacillus subtilis [1] was inactive. In addition, 3.1 mg/L (≈ 5.74 µM) corresponded to half-maximal inhibition with P388 [2] (IC50).

Source of the values: ChEMBL document CHEMBL1151186, “Ether-linked biflavonoids from Quintinia acutifolia” (J Nat Prod, 2004).
